Data set [1] concerns the target T1, ABCG2 (Homo sapiens, UniProt Q9UNQ0).
T1 sequence (Q9UNQ0 1-655): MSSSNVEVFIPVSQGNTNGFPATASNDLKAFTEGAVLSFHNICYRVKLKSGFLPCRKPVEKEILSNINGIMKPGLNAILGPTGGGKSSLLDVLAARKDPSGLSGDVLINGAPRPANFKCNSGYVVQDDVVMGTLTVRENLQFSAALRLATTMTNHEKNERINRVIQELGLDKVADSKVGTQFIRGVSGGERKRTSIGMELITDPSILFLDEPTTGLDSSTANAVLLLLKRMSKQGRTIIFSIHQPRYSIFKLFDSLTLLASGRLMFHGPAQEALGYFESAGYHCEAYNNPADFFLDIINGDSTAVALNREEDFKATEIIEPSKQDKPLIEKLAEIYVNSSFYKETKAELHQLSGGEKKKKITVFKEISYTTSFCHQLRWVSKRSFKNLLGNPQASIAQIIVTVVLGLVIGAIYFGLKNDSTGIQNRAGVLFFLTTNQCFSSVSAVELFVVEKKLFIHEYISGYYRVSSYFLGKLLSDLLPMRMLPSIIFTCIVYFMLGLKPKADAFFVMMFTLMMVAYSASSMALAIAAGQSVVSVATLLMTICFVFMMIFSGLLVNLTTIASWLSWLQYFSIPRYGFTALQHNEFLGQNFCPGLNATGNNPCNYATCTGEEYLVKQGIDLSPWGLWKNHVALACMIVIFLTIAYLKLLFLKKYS
In words: Inhibitory accumulation assay in MDCKII-ABCG2 cells. Type of data set: cell-based. The protocol: Accumulation assays were performed as described previously. […] The daunorubicin and mitoxantrone accumulation assays were performed in above mentioned cell lines and were also adopted to primary NSCLC cultures. […] Cells were incubated up to 70-80% confluence for approximately 24 h. […] The cells there trypsinized on ice, resuspended with 2% FBS in cold PBS solution and then fluorescence was detected using flow cytometer (BD FACSCanto II, Allschwil, Switzerland). […] For data presentation, the ratios of relative fluorescence units (RFUs) from treated samples to RFUs from vehicle-treated (control) cells were computed generating “relative substrate accumulation”.

Data set [2] has as its target ABCC1 (Homo sapiens, UniProt P33527). In words: MDCKII cellular monolayer transport assay. The note with it: 1 µM tepotinib, 4 h. Type of data set: in vitro ADME. The procedure:
(§1) This assay was performed as described previously. […] The Transwells were incubated until full confluence for 7 days with media replacement every 2 days. Prior addition of tested drugs, inserts were washed with 1 × PBS on both apical and basal sides. […] Samples were then collected from the acceptor chambers at 0.5, 1, 2 and 4 h intervals. Cellular monolayers’ integrity was verified using fluorescein isothiocyanate-labeled dextran (MW = 40 kDa) accepting leakage up to 5% per hour.

In data set [3] the target is T1, ABCG2. Description: MDCKII cellular monolayer transport assay. Type of data set: in vitro ADME. The following applies: 1 µM tepotinib, 4 h. The procedure: as §1
Data set [4] has as its target ABCB1 (Homo sapiens, UniProt P08183). Description: MDCKII cellular monolayer transport assay. The following applies: 1 µM tepotinib, 4 h, asymmetry aborted by 1 µM LY335979. It is filed as in vitro ADME. The procedure:
as §1

The nature of data set [5]: MTT proliferation / drug combination assay. The note with it: human.
Data set [6] is described as follows: MTT proliferation / drug combination assay. The note with it: human. This is another data set of the same source.
The test system of data set [7] is CYP3A4. The following applies: DI study in healthy subjects; cited from earlier work.

The values below come from PMC8584989 (International Journal of Molecular Sciences, 2021).

Like-named read-outs stand apart in the source and are kept apart here.

ABCC1, sequence (P33527 whole entry): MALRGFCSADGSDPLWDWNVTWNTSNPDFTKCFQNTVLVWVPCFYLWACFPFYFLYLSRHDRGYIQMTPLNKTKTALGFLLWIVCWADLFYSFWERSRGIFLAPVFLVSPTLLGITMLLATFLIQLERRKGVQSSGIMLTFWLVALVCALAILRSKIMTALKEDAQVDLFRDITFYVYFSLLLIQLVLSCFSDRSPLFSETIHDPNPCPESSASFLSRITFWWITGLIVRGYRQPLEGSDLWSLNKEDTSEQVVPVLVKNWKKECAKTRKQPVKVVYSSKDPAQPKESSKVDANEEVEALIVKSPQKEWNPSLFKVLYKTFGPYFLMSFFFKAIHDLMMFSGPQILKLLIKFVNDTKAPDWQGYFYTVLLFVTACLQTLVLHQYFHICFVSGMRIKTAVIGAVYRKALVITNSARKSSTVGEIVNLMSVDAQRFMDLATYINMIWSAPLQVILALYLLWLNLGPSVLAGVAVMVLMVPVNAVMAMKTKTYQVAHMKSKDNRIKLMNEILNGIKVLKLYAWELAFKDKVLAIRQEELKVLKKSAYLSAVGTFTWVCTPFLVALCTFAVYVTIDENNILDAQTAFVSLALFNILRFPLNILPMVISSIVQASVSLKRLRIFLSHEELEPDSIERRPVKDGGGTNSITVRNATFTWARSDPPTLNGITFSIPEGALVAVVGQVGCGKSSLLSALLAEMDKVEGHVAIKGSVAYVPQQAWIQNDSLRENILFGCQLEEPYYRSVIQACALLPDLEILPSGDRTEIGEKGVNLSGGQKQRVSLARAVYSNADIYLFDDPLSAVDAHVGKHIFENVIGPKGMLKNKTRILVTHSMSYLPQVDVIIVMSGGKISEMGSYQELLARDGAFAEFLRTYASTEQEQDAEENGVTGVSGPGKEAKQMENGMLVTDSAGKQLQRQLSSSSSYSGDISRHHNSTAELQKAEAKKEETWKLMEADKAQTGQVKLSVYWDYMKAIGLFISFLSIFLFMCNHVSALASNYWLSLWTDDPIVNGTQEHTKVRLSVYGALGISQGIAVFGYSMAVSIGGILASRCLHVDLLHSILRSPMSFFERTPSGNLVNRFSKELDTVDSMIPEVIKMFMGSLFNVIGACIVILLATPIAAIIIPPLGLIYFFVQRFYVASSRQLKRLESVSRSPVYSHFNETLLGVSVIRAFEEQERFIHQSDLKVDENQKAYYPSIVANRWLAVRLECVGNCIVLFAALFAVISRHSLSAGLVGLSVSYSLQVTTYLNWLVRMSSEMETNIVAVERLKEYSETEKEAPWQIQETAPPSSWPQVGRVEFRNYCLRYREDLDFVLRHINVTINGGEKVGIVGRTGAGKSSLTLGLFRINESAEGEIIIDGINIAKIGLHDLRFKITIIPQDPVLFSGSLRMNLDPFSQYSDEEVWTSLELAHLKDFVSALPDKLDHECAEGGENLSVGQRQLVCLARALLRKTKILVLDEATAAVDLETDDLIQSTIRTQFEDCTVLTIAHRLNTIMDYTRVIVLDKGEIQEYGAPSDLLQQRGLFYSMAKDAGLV
ABCB1, sequence (P08183 whole entry): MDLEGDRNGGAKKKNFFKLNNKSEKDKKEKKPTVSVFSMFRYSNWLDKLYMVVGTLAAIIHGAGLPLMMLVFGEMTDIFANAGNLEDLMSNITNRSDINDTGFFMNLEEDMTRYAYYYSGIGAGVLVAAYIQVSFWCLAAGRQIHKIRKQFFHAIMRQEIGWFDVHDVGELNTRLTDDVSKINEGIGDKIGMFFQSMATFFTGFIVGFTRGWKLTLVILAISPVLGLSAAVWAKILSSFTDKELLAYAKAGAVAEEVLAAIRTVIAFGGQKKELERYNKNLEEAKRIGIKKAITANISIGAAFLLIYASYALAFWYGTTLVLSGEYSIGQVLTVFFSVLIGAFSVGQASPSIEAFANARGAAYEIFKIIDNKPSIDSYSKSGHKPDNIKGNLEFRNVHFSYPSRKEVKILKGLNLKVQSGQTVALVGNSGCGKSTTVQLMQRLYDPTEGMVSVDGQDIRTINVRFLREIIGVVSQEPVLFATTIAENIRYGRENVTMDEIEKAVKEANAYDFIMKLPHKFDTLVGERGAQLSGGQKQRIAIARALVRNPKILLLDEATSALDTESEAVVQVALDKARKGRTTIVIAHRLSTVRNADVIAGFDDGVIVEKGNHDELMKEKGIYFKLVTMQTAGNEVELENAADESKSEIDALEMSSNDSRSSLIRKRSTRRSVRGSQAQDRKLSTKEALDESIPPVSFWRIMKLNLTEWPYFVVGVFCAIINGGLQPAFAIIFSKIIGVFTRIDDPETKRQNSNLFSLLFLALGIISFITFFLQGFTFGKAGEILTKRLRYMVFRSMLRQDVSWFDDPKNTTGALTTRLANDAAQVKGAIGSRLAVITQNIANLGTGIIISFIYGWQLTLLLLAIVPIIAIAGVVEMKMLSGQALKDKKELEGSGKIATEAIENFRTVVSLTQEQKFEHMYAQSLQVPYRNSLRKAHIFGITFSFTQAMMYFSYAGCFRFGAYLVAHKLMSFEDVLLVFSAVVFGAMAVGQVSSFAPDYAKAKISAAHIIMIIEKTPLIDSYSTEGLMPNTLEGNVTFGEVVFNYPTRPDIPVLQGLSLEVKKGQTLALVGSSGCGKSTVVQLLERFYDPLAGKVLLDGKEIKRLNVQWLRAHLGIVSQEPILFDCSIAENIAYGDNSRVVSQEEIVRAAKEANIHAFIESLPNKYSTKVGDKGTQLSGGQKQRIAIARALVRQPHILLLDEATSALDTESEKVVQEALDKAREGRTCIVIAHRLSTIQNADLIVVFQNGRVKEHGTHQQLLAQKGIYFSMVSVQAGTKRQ

For the compound `CN1CCC(COc2cnc(-c3cccc(Cn4nc(-c5cccc(C#N)c5)ccc4=O)c3)nc2)CC1` [tepotinib, Tepotinib], the IC50 in data set [1] (5 µM mitoxantrone, 1 h, read-out: IC50, relative mitoxantrone accumulation) is 29.9 µM; in data set [1] (8 µM hoechst 33342, read-out: IC50, relative Hoechst 33342 accumulation) it was 15.8 µM. In data set [2], the “Substrate affinity for ABCC1” value is given as “No substrate affinities”. In addition, in data set [3], the “Substrate affinity for ABCG2” value is recorded as “No substrate affinities”. Further, the “Substrate affinity for ABCB1 (transport asymmetry)” value in data set [4] was “ABCB1 substrate”. The IC50 at 48 h was found to be 16.4 µM in data set [5] and 16.5 µM in data set [6]. Further, in data set [7], the “Effect on CYP3A4 substrate midazolam” value is given as “failed to exert the effect”.
